According to patent publication US20240116985A1, “STAPLED PEPTIDES AND METHODS THEREOF” (priority 2020, published 2024):
pIC50: −log10 of the molar value. Read-outs that look alike come from different tables or passages of the source.

Legend:
[1] = target: T1, beta-catenin/TCF4 engagement (Homo sapiens, UniProt P35222); experiment: Nano-BRET target engagement assay (B-cat-Halo & TCF4-Luc in HEK293 cells); assay type: cell-based; settings: for pIC50: read-out: NanoBRET Abs IC50
T1 construct: expressed in transfected cells; host or cells: HEK293
T1 sequence (P35222 1-781): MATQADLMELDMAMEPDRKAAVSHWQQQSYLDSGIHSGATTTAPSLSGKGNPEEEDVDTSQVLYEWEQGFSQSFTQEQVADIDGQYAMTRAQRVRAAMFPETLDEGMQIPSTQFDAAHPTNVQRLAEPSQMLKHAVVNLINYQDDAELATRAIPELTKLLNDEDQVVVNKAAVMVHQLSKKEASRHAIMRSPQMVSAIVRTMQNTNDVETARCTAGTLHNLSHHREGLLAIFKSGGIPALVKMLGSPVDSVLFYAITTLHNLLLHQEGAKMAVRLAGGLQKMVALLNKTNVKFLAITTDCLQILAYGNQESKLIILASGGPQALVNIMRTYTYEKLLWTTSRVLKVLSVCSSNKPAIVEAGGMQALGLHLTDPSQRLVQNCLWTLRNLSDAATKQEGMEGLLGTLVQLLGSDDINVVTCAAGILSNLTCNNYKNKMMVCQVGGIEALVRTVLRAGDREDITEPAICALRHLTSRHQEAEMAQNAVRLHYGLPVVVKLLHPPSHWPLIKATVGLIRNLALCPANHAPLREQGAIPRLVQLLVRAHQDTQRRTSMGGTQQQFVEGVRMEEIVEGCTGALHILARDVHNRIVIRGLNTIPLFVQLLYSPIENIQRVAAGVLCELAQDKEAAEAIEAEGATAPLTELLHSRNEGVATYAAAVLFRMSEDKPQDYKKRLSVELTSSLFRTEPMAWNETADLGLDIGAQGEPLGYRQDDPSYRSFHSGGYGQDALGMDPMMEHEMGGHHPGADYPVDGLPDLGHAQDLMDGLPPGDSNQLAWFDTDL

[2] = target: T2, full-length beta-Catenin (Uniprot ID P35222) (Homo sapiens, UniProt P35222); experiment: Fluorescence polarization IC50 (beta-catenin / 5FAM-TCF4 10-53 competition); assay type: binding; settings: fluorescence polarization; for pIC50: read-out: beta-Catenin FP IC50
T2 construct: 10 nM full-length beta-Catenin (Uniprot ID P35222)
T2 sequence (P35222 1-781): T1 sequence (P35222 1-781)

SMILES	pIC50 [1]	pIC50 [2]	IC50 ([1]; NanoBRET Abs IC50 (uM)) [µM]	IC50 ([2]; beta-Catenin FP IC50 (nM)) [nM]
CC(=O)N1CCC[C@]12CC=CCCCC1(CCCC=CCCCOC(=O)N3CC[C@@](C(=O)N[C@@H](Cc4ccsc4)C(=O)N[C@@H](Cc4csc5ccccc45)C(=O)N[C@@H](C)C(N)=O)(C3)NC(=O)[C@H](CC(C)C)NC(=O)[C@H](Cc3ccccc3)NC(=O)[C@H](C)NC(=O)[C@H](CCCCNC(C)C)NC(=O)[C@H](Cc3cccc(C(=O)O)c3)NC(=O)[C@H](CC(=O)O)NC1=O)NC(=O)[C@H](CC(C)(C)C)NC(=O)[C@H](CC(=O)O)NC2=O (stereo partly drawn) [I-1915, Ac-PL3-Asp-Npg-B5-Asp-3COOHF-iPrLys-Ala-Phe-Leu-PyrS2-3Thi-BztA-Ala-NH2]	4.69	7.96		
CC(=O)N1CCC[C@]12CC=CCCCC1(CCCC=CCCCOC(=O)N3CC[C@@](C(=O)N[C@@H](Cc4ccsc4)C(=O)N[C@@H](Cc4csc5ccccc45)C(=O)N[C@@H](C)C(N)=O)(C3)NC(=O)[C@H](CC(C)C)NC(=O)[C@H](Cc3ccccc3)NC(=O)[C@H](C)NC(=O)[C@H](Cc3c[nH]cn3)NC(=O)[C@H](Cc3cccc(C(=O)O)c3)NC(=O)[C@H](CC(=O)O)NC1=O)NC(=O)[C@H](CC(C)(C)C)NC(=O)[C@H](CC(=O)O)NC2=O (stereo partly drawn) [I-1916, Ac-PL3-Asp-Npg-B5-Asp-3COOHF-His-Ala-Phe-Leu-PyrS2-3Thi-BztA-Ala-NH2]	5.04	8.10		
CCCC[C@@H]1NC(=O)[C@H](Cc2cccc(C(=O)O)c2)NC(=O)[C@H](CC(=O)O)NC(=O)C2(CCCC=CCCCOC(=O)N3CC[C@@](C(=O)N[C@@H](Cc4ccsc4)C(=O)N[C@@H](Cc4csc5ccccc45)C(=O)N[C@@H](C)C(N)=O)(C3)NC(=O)[C@H](CC(C)C)NC(=O)[C@H](Cc3ccccc3)NC(=O)[C@H](C)NC1=O)CCCC=CC[C@]1(CCCN1C(C)=O)C(=O)N[C@@H](CC(=O)O)C(=O)N[C@@H](CC(C)(C)C)C(=O)N2 (stereo partly drawn) [I-1919, Ac-PL3-Asp-Npg-B5-Asp-3COOHF-nLeu-Ala-Phe-Leu-PyrS2-3Thi-BztA-Ala-NH2]	5.33	7.48		
CC(=O)N1CCC[C@]12CC=CCCCC1(CCCC=CCCCOC(=O)N3CC[C@@](C(=O)N[C@@H](Cc4cccc(C(N)=O)c4)C(=O)N[C@@H](Cc4csc5ccccc45)C(=O)N[C@@H](CCO)C(N)=O)(C3)NC(=O)[C@H](CC(N)=O)NC(=O)[C@H](Cc3ccccc3)NC(=O)[C@H](C)NC(=O)[C@H](CCCCNC(C)C)NC(=O)[C@H](CCC(N)=O)NC(=O)[C@H](CC(=O)O)NC1=O)NC(=O)[C@H](CC1CCCCC1)NC(=O)[C@H](CC(N)=O)NC2=O (stereo partly drawn) [I-1929, Ac-PL3-Asn-Cha-B5-Asp-Gln-iPrLys-Ala-Phe-Asn-PyrS2-3cbmf-BztA-Hse-NH2]	< 4.70	7.13		
CC(=O)N1CCC[C@]12CC=CCCCC1(CCCC=CCCCOC(=O)N3CC[C@@](C(=O)N[C@@H](Cc4ccsc4)C(=O)N[C@@H](Cc4csc5ccccc45)C(=O)N[C@@H](CCC(N)=O)C(N)=O)(C3)NC(=O)[C@H](CCC(=O)N3CCN(CC(F)(F)F)CC3)NC(=O)[C@H](Cc3ccccc3)NC(=O)[C@H](C)NC(=O)[C@H](C)NC(=O)[C@H](CN(CC(=O)O)CC(F)(F)F)NC(=O)[C@H](CC(=O)O)NC1=O)NC(=O)[C@H](CC(C)(C)C)NC(=O)[C@H](CC(=O)O)NC2=O (stereo partly drawn) [I-1935, Ac-PL3-Asp-Npg-B5-Asp-TfeGA-Ala-Ala-Phe-[TfePpz]GlnR-PyrS2-3Thi-BztA-Gln-NH2]	5.15	8.05		
CC(=O)N1CCC[C@]12CC=CCCCC1(CCCC=CCCCOC(=O)N3CC[C@@](C(=O)N[C@@H](Cc4ccsc4)C(=O)N[C@@H](Cc4csc5ccccc45)C(=O)N[C@@H](CCC(N)=O)C(N)=O)(C3)NC(=O)[C@H](CCC(=O)N3CCN(CCCN(C)C)CC3)NC(=O)[C@H](Cc3ccccc3)NC(=O)[C@H](C)NC(=O)[C@H](C)NC(=O)[C@H](CN(CC(=O)O)CC(F)(F)F)NC(=O)[C@H](CC(=O)O)NC1=O)NC(=O)[C@H](CC(C)(C)C)NC(=O)[C@H](CC(=O)O)NC2=O (stereo partly drawn) [I-1936, Ac-PL3-Asp-Npg-B5-Asp-TfeGA-Ala-Ala-Phe-[Me2NPrPip]GlnR-PyrS2-3Thi-BztA-Gln-NH2]	4.80	8.00		
CC(=O)N1CCC[C@]12CC=CCCCC1(CCCC=CCCCOC(=O)N3CC[C@@](C(=O)N[C@@H](Cc4ccsc4)C(=O)N[C@@H](Cc4csc5ccccc45)C(=O)N[C@@H](CCC(N)=O)C(N)=O)(C3)NC(=O)[C@H](CCC(=O)N3CCN(c4ccncc4)CC3)NC(=O)[C@H](Cc3ccccc3)NC(=O)[C@H](C)NC(=O)[C@H](C)NC(=O)[C@H](CN(CC(=O)O)CC(F)(F)F)NC(=O)[C@H](CC(=O)O)NC1=O)NC(=O)[C@H](CC(C)(C)C)NC(=O)[C@H](CC(=O)O)NC2=O (stereo partly drawn) [I-1938, Ac-PL3-Asp-Npg-B5-Asp-TfeGA-Ala-Ala-Phe-[4PyPip]GlnR-PyrS2-3Thi-BztA-Gln-NH2]			30	8
CC(=O)N1CCC[C@]12CC=CCCCC1(CCCC=CCCCOC(=O)N3CC[C@@](C(=O)N[C@@H](Cc4ccsc4)C(=O)N[C@@H](Cc4csc5ccccc45)C(=O)N[C@@H](CCC(N)=O)C(N)=O)(C3)NC(=O)[C@H](CCC(=O)N3CC[C@@H](N(C)C)C3)NC(=O)[C@H](Cc3ccccc3)NC(=O)[C@H](C)NC(=O)[C@H](C)NC(=O)[C@H](CN(CC(=O)O)CC(F)(F)F)NC(=O)[C@H](CC(=O)O)NC1=O)NC(=O)[C@H](CC(C)(C)C)NC(=O)[C@H](CC(=O)O)NC2=O (stereo partly drawn) [I-1939, Ac-PL3-Asp-Npg-B5-Asp-TfeGA-Ala-Ala-Phe-[RDMAPyr]GlnR-PyrS2-3Thi-BztA-Gln-NH2]	4.68	8.00		

Further lines, with some results ahead:

pIC50 [1]	pIC50 [2]	SMILES	IC50 ([1]; NanoBRET Abs IC50 (uM)) [µM]	IC50 ([2]; beta-Catenin FP IC50 (nM)) [nM]
< 4.70	7.42	CC(=O)N1CCC[C@]12CC=CCCCC1(CCCC=CCCCOC(=O)N3CC[C@@](C(=O)N[C@@H](Cc4ccsc4)C(=O)N[C@@H](Cc4csc5ccccc45)C(=O)N[C@@H](Cc4ccccc4)C(N)=O)(C3)NC(=O)[C@H](CC(C)C)NC(=O)[C@H](Cc3ccccc3)NC(=O)[C@H](C)NC(=O)[C@H](CCCCN)NC(=O)[C@H](Cc3cccc(C(=O)O)c3)NC(=O)[C@H](CC(=O)O)NC1=O)NC(=O)[C@H](CC(C)(C)C)NC(=O)[C@H](CC(=O)O)NC2=O (stereo partly drawn) [I-1911, Ac-PL3-Asp-Npg-B5-Asp-3COOHF-Lys-Ala-Phe-Leu-PyrS2-3Thi-BztA-Phe-NH2]		
4.94	7.89	CC(=O)N1CCC[C@]12CC=CCCCC1(CCCC=CCCCOC(=O)N3CC[C@@](C(=O)N[C@@H](Cc4ccsc4)C(=O)N[C@@H](Cc4csc5ccccc45)C(=O)N[C@@H](Cc4ccccc4)C(N)=O)(C3)NC(=O)[C@H](CC(C)C)NC(=O)[C@H](Cc3ccccc3)NC(=O)[C@H](C)NC(=O)[C@H](CCC(N)=O)NC(=O)[C@H](Cc3cccc(C(=O)O)c3)NC(=O)[C@H](CC(=O)O)NC1=O)NC(=O)[C@H](CC(C)(C)C)NC(=O)[C@H](CC(=O)O)NC2=O (stereo partly drawn) [I-1912, Ac-PL3-Asp-Npg-B5-Asp-3COOHF-Gln-Ala-Phe-Leu-PyrS2-3Thi-BztA-Phe-NH2]		
4.76	6.92	CCCC[C@@H]1NC(=O)[C@H](Cc2cccc(C(=O)O)c2)NC(=O)[C@H](CC(=O)O)NC(=O)C2(CCCC=CCCCOC(=O)N3CC[C@@](C(=O)N[C@@H](Cc4ccsc4)C(=O)N[C@@H](Cc4csc5ccccc45)C(=O)N[C@@H](Cc4ccccc4)C(N)=O)(C3)NC(=O)[C@H](CC(C)C)NC(=O)[C@H](Cc3ccccc3)NC(=O)[C@H](C)NC1=O)CCCC=CC[C@]1(CCCN1C(C)=O)C(=O)N[C@@H](CC(=O)O)C(=O)N[C@@H](CC(C)(C)C)C(=O)N2 (stereo partly drawn) [I-1913, Ac-PL3-Asp-Npg-B5-Asp-3COOHF-nLeu-Ala-Phe-Leu-PyrS2-3Thi-BztA-Phe-NH2]		
5.19	7.28	CC(=O)N1CCC[C@]12CC=CCCCC1(CCCC=CCCCOC(=O)N3CC[C@@](C(=O)N[C@@H](Cc4ccsc4)C(=O)N[C@@H](Cc4csc5ccccc45)C(=O)N[C@@H](Cc4ccccc4)C(N)=O)(C3)NC(=O)[C@H](CC(C)C)NC(=O)[C@H](Cc3ccccc3)NC(=O)[C@H](C)NC(=O)C(C)(C)NC(=O)[C@H](Cc3cccc(C(=O)O)c3)NC(=O)[C@H](CC(=O)O)NC1=O)NC(=O)[C@H](CC(C)(C)C)NC(=O)[C@H](CC(=O)O)NC2=O (stereo partly drawn) [I-1914, Ac-PL3-Asp-Npg-B5-Asp-3COOHF-Aib-Ala-Phe-Leu-PyrS2-3Thi-BztA-Phe-NH2]		
4.42	7.89	CC(=O)N1CCC[C@]12CC=CCCCC1(CCCC=CCCCOC(=O)N3CC[C@@](C(=O)N[C@@H](Cc4ccsc4)C(=O)N[C@@H](Cc4csc5ccccc45)C(=O)N[C@@H](C)C(N)=O)(C3)NC(=O)[C@H](CC(C)C)NC(=O)[C@H](Cc3ccccc3)NC(=O)[C@H](C)NC(=O)[C@H](CCCCN)NC(=O)[C@H](Cc3cccc(C(=O)O)c3)NC(=O)[C@H](CC(=O)O)NC1=O)NC(=O)[C@H](CC(C)(C)C)NC(=O)[C@H](CC(=O)O)NC2=O (stereo partly drawn) [I-1917, Ac-PL3-Asp-Npg-B5-Asp-3COOHF-Lys-Ala-Phe-Leu-PyrS2-3Thi-BztA-Ala-NH2]		
